# Patent US9604983B2, “Herbicidal 3-(2-benzyloxyphenyl)-2,4-dihydroxy-1,8-naphthyridine derivatives” (SYNGENTA LIMITED, priority 2013, dated 2017)
# Experiments:
# Assay in all cases: Post-emergence efficacy, glasshouse pot test
# Format in all cases: in vivo
# Conditions in all cases: post-emergence application at 1000 g/ha; evaluated after 13 days; five point scale
# [1] = tested on: Amaranthus retoflexus (AMARE)
# Procedure: (§1) B1 Post-emergence Efficacy Seeds of a variety of test species are sown in standard soil in pots:—Solanum nigrum (SOLNI), Amaranthus retoflexus (AMARE), Setaria faberi (SETFA), Alopecurus myosuroides (ALOMY), Echinochloa crus-galli (ECHCG), Ipomoea hederacea (IPOHE). After 8 days cultivation (post-emergence) under controlled conditions in a glasshouse (at 24/16° C., day/night; 14 hours light; 65% humidity), the plants are sprayed with an aqueous spray solution derived from the formulation of the technical active ingredient in acetone/water (50:50) solution containing 0.5% Tween 20 (polyoxyethelyene sorbitan monolaurate, CAS RN 9005-64-5). Compounds are applied at 1000 g/ha. The test plants are then grown in a glasshouse under controlled conditions in a glasshouse (at 24/16° C., day/night; 14 hours light; 65% humidity) and watered twice daily. After 13 days, the test is evaluated for the percentage damage caused to the plant. The biological activities are shown below in Table 13, on a five point scale (5=80-100%; 4=60-79%; 3=40-59%; 2=20-39%; 1=0-19%).
# Solanum nigrum (SOLNI) = tested on: Solanum nigrum (SOLNI)
# Procedure: as §1
# [2] = tested on: Alopecurus myosuroides (ALOMY)
# Procedure: as §1
# [3] = tested on: Echinochloa crus-galli (ECHCG)
# Procedure: as §1
# [4] = tested on: Ipomoea hederacea (IPOHE)
# Procedure: as §1
# Setaria faberi (SETFA) = tested on: Setaria faberi (SETFA)
# Procedure: as §1
Compound,"percentage damage caused to the plant, AMARE [1]","percentage damage caused to the plant, SOLNI (Solanum nigrum (SOLNI))","percentage damage caused to the plant, ALOMY [2]","percentage damage caused to the plant, ECHCG [3]","percentage damage caused to the plant, IPOHE [4]","percentage damage caused to the plant, SETFA (Setaria faberi (SETFA))"
"C#CCn1c(=O)c(-c2c(Cl)ccc(Cl)c2OCc2ccccc2)c(OC(=O)C(C)C)c2cccnc21 [Compound 1.001, [3-(2-Benzyloxy-3,6-dichloro-phenyl)-2-oxo-1-prop-2-ynyl-1,8-naph-thyridin-4-yl]2-methylpropanoate]",5 (5=80-100%),5 (5=80-100%),2 (2=20-39%),4 (4=60-79%),5 (5=80-100%),4 (4=60-79%)
C#CCn1c(=O)c(-c2c(Cl)ccc(Cl)c2OCc2ccc(Cl)cc2)c(OC(=O)C(C)C)c2cccnc21 [Compound 1.003],5 (5=80-100%),5 (5=80-100%),1 (1=0-19%),4 (4=60-79%),5 (5=80-100%),3 (3=40-59%)
C#CCn1c(=O)c(-c2c(Cl)ccc(Cl)c2OCc2ccc(C)cc2)c(OC(=O)C(C)C)c2cccnc21 [Compound 1.004],5 (5=80-100%),5 (5=80-100%),1 (1=0-19%),3 (3=40-59%),3 (3=40-59%),1 (1=0-19%)
C#CCn1c(=O)c(-c2c(Cl)ccc(Cl)c2OCc2ccccc2)c(OC(=O)C(C)C)c2c(OC)ccnc21 [Compound 1.007],4 (4=60-79%),4 (4=60-79%),1 (1=0-19%),1 (1=0-19%),1 (1=0-19%),1 (1=0-19%)
C#CCn1c(=O)c(-c2c(Cl)ccc(Cl)c2OCc2ccccc2)c(OC(=O)C(C)C)c2nccnc21 [Compound 1.008],5 (5=80-100%),5 (5=80-100%),5 (5=80-100%),5 (5=80-100%),5 (5=80-100%),5 (5=80-100%)
"C#CCn1c(=O)c(-c2c(Cl)ccc(Cl)c2OCc2ccccc2)c(O)c2cccnc21 [Compound 2.001, 3-(2-Benzyloxy-3,6-dichloro-phenyl)-4-hydroxy-1-prop-2-ynyl-1,8-naphthyridin-2-one]",5 (5=80-100%),5 (5=80-100%),5 (5=80-100%),5 (5=80-100%),5 (5=80-100%),5 (5=80-100%)
C#CCn1c(=O)c(-c2c(Cl)ccc(Cl)c2OCc2ccc(OC)cc2)c(O)c2cccnc21 [Compound 2.002],4 (4=60-79%),5 (5=80-100%),5 (5=80-100%),5 (5=80-100%),5 (5=80-100%),5 (5=80-100%)
C#CCn1c(=O)c(-c2c(Cl)ccc(Cl)c2OCc2ccc(Cl)cc2)c(O)c2cccnc21 [Compound 2.003],5 (5=80-100%),5 (5=80-100%),3 (3=40-59%),5 (5=80-100%),5 (5=80-100%),4 (4=60-79%)
C#CCn1c(=O)c(-c2c(Cl)ccc(Cl)c2OCc2ccc(C)cc2)c(O)c2cccnc21 [Compound 2.004],5 (5=80-100%),5 (5=80-100%),4 (4=60-79%),4 (4=60-79%),5 (5=80-100%),4 (4=60-79%)
C#CCn1c(=O)c(-c2c(Cl)ccc(Cl)c2OCc2ccc(C(F)(F)F)cc2)c(O)c2cccnc21 [Compound 2.006],5 (5=80-100%),5 (5=80-100%),4 (4=60-79%),5 (5=80-100%),5 (5=80-100%),5 (5=80-100%)
C#CCn1c(=O)c(-c2c(Cl)ccc(Cl)c2OCc2ccccc2)c(O)c2nccnc21 [Compound 2.008],5 (5=80-100%),5 (5=80-100%),5 (5=80-100%),5 (5=80-100%),5 (5=80-100%),5 (5=80-100%)
CC(C)C(=O)Oc1c(-c2c(Cl)ccc(Cl)c2OCc2ccccc2)c(=O)n(CC(F)F)c2ncccc12 [Compound 3.001],5 (5=80-100%),5 (5=80-100%),2 (2=20-39%),2 (2=20-39%),5 (5=80-100%),1 (1=0-19%)
CC(C)C(=O)Oc1c(-c2c(Cl)ccc(Cl)c2OCc2ccc(Cl)cc2)c(=O)n(CC(F)F)c2ncccc12 [Compound 3.003],5 (5=80-100%),5 (5=80-100%),1 (1=0-19%),1 (1=0-19%),5 (5=80-100%),1 (1=0-19%)
Cc1ccc(COc2c(Cl)ccc(Cl)c2-c2c(OC(=O)C(C)C)c3cccnc3n(CC(F)F)c2=O)cc1 [Compound 3.004],4 (4=60-79%),5 (5=80-100%),1 (1=0-19%),1 (1=0-19%),5 (5=80-100%),1 (1=0-19%)
CC(C)C(=O)Oc1c(-c2c(Cl)ccc(Cl)c2OCc2ccc(C(F)(F)F)cc2)c(=O)n(CC(F)F)c2ncccc12 [Compound 3.006],5 (5=80-100%),5 (5=80-100%),1 (1=0-19%),1 (1=0-19%),5 (5=80-100%),1 (1=0-19%)
COc1ccnc2c1c(OC(=O)C(C)C)c(-c1c(Cl)ccc(Cl)c1OCc1ccccc1)c(=O)n2CC(F)F [Compound 3.007],4 (4=60-79%),2 (2=20-39%),1 (1=0-19%),1 (1=0-19%),2 (2=20-39%),1 (1=0-19%)
CC(C)C(=O)Oc1c(-c2c(Cl)ccc(Cl)c2OCc2ccccc2)c(=O)n(CC(F)F)c2nccnc12 [Compound 3.008],5 (5=80-100%),5 (5=80-100%),4 (4=60-79%),5 (5=80-100%),5 (5=80-100%),5 (5=80-100%)
